Laboratory results as given in paper PMC6717862 (Drug Design, Development and Therapy, 2019).

Columns and labels:
EGFR = EGFR (Homo sapiens, UniProt P00533); test: In vitro enzymatic activity assay; assay type: biochemical; settings: read-out: EGFR inhibition%, inhibition percentage at 1.0 μM
[1] = hypoxia vs normoxia; cited from earlier work

Chain of EGFR (P00533 25-1210): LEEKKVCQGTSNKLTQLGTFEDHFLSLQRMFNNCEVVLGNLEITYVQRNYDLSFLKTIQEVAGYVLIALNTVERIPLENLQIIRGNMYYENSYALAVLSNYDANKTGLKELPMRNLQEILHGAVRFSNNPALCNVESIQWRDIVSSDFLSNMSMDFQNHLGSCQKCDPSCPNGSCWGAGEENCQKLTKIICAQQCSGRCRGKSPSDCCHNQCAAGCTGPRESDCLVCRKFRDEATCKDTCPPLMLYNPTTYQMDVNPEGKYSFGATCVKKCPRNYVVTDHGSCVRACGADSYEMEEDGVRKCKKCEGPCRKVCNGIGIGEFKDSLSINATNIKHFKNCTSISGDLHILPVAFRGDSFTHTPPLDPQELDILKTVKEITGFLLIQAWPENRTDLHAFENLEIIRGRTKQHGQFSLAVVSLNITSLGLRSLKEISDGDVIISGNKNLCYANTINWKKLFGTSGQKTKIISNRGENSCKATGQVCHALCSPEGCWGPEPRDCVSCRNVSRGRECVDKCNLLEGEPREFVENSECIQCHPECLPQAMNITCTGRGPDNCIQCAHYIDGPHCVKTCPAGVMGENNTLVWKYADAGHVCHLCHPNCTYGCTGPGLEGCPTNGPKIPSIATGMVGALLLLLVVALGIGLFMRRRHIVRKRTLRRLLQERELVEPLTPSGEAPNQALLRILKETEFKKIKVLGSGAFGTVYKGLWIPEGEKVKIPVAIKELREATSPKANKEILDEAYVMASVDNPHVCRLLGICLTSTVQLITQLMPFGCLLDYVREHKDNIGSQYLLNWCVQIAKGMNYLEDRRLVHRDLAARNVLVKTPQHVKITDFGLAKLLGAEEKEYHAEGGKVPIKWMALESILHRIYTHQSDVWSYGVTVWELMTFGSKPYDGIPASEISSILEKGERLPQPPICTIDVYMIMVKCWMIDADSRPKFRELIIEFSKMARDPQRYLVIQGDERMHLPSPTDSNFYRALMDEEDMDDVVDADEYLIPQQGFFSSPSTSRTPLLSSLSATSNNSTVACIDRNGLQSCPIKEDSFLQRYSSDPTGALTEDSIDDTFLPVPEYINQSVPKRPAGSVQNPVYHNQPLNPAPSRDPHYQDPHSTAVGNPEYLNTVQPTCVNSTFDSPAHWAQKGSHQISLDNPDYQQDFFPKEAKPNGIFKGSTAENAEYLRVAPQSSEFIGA

inhibition at 1 µM (EGFR)	Compound	fold more effective in carcinoma hypoxia than in normoxia [1]
< 50%	COc1cc2c(Nc3ccc(OCCn4ccnc4[N+](=O)[O-])cc3)ncnc2cc1OCCCN1CCOCC1 [Compound 16d, 6-Methoxy-7-(3-morpholinopropoxy)-N-(4-(2-(2-nitro-1H-imidazol-1-yl)ethoxy)phenyl)quinazolin-4-amine]	
< 50%	COCCOc1cc2ncnc(Nc3ccc(OCCn4ccnc4[N+](=O)[O-])cc3)c2cc1OCCOC [Compound 16h, 6,7-Bis(2-methoxyethoxy)-N-(4-(2-(2-nitro-1H-imidazol-1-yl)ethoxy)phenyl)quinazolin-4-amine]	
< 50%	COc1cc2ncnc(Nc3ccc(OCCn4ccnc4[N+](=O)[O-])cc3)c2cc1OCCCN1CCOCC1 [Compound 16l, 7-Methoxy-6-(3-morpholinopropoxy)-N-(4-(2-(2-nitro-1H-imidazol-1-yl)ethoxy)phenyl)quinazolin-4-amine]	
	Cn1c(COP(=O)(NCCBr)NCCBr)cnc1[N+](=O)[O-] [TH-302]	270 fold
